Measurements published in ChEMBL document CHEMBL1142639, “New triterpenoid saponins from the sponge Melophlus isis” (2000).
Values after ≈ are worked out from the molar mass of the structure shown. Active and inactive are the calls of the source. The rule behind the calls is not given here.

Tests used:
[1] = test system: K562; test: Cytotoxicity against human K562 cells; assay type: functional; conditions: read-out: LC50 (the source's name)
[2] = test system: Vibrio harveyi; test: Antibacterial activity against Vibrio harveyi at 100 ug/mL by paper disk method; assay type: functional, organism-based
[3] = test system: Photobacterium phosphoreum; test: Antibacterial activity against Photobacterium phosphoreum at 100 ug/mL by paper disk method; assay type: functional, organism-based
[4] = test system: Photobacterium leiognathi; test: Antibacterial activity against Photobacterium leiognathi at 100 ug/mL by paper disk method; assay type: functional, organism-based

Structure (SMILES)	CC50 [1] [µg/mL]	Activity [2]	Activity [3]	Activity [4]	A ctivity [4]
CC(=O)N[C@H]1[C@H](O[C@@H]2CO[C@@H](O[C@H]3CC[C@]4(C)C5=C(CC[C@H]4C3(C)C)[C@@H]3CC[C@H]([C@H](C)CC(=O)C=C(C)C)[C@@]3(C)CC5)[C@H](O[C@@H]3O[C@H](CO[C@@H]4O[C@H](CO)[C@@H](O)[C@H](O)[C@H]4O[C@@H]4O[C@H](CO)[C@@H](O)[C@H](O)[C@H]4O)[C@@H](O)[C@H](O)[C@H]3NC(C)=O)[C@H]2O)O[C@H](CO)[C@H](O)[C@@H]1O [SARASINOSIDE A1]	6.5 (≈ 5.04 µM)	–	–	–	–
CO[C@@H]1C[C@H]([C@H](C)CC(=O)C=C(C)C)[C@@]2(C)CC[C@@]3(O)C(=C12)CC[C@H]1C(C)(C)[C@@H](O[C@@H]2OC[C@@H](O[C@@H]4O[C@H](CO)[C@H](O)[C@H](O)[C@H]4NC(C)=O)[C@H](O)[C@H]2O[C@@H]2O[C@H](CO[C@@H]4O[C@H](CO)[C@@H](O)[C@H](O)[C@H]4O[C@@H]4O[C@H](CO)[C@@H](O)[C@H](O)[C@H]4O)[C@@H](O)[C@H](O)[C@H]2NC(C)=O)CC[C@@]13C [SARASINOSIDE H2]	> 100	inactive	inactive	inactive	–
CO[C@H]1C[C@H]([C@H](C)CC(=O)C=C(C)C)[C@@]2(C)CC[C@@]3(O)C(=C12)CC[C@H]1C(C)(C)[C@@H](O[C@@H]2OC[C@@H](O[C@@H]4O[C@H](CO)[C@H](O)[C@H](O)[C@H]4NC(C)=O)[C@H](O)[C@H]2O[C@@H]2O[C@H](CO[C@@H]4O[C@H](CO)[C@@H](O)[C@H](O)[C@H]4O[C@@H]4O[C@H](CO)[C@@H](O)[C@H](O)[C@H]4O)[C@@H](O)[C@H](O)[C@H]2NC(C)=O)CC[C@@]13C [SARASINOSIDE I2]	> 100	inactive	inactive	inactive	–
CC(=O)N[C@H]1[C@H](O[C@@H]2CO[C@@H](O[C@H]3CC[C@@]4(C)[C@@H](CCC5=C6[C@H](O)C[C@H]([C@H](C)CC(=O)C=C(C)C)[C@@]6(C)CC[C@@]54O)C3(C)C)[C@H](O[C@@H]3O[C@H](CO[C@@H]4O[C@H](CO)[C@@H](O)[C@H](O)[C@H]4O[C@@H]4O[C@H](CO)[C@@H](O)[C@H](O)[C@H]4O)[C@@H](O)[C@H](O)[C@H]3NC(C)=O)[C@H]2O)O[C@H](CO)[C@H](O)[C@@H]1O [SARASINOSIDE H1]	> 100	inactive	inactive	inactive	–
CC(=O)N[C@H]1[C@H](O[C@@H]2CO[C@@H](O[C@H]3CC[C@@]4(C)[C@@H](CCC5=C6[C@@H](O)C[C@H]([C@H](C)CC(=O)C=C(C)C)[C@@]6(C)CC[C@@]54O)C3(C)C)[C@H](O[C@@H]3O[C@H](CO[C@@H]4O[C@H](CO)[C@@H](O)[C@H](O)[C@H]4O[C@@H]4O[C@H](CO)[C@@H](O)[C@H](O)[C@H]4O)[C@@H](O)[C@H](O)[C@H]3NC(C)=O)[C@H]2O)O[C@H](CO)[C@H](O)[C@@H]1O [SARASINOSIDE I1]	> 100	inactive	inactive	–	inactive
CC(=O)N[C@H]1[C@H](O[C@@H]2CO[C@@H](O[C@H]3CC[C@]4(C)C5=C(CC[C@H]4C3(C)C)C3=CC[C@H]([C@H](C)CC(=O)C=C(C)C)[C@@]3(C)CC5)[C@H](O[C@@H]3O[C@H](CO[C@@H]4O[C@H](CO)[C@@H](O)[C@H](O)[C@H]4O[C@@H]4O[C@H](CO)[C@@H](O)[C@H](O)[C@H]4O)[C@@H](O)[C@H](O)[C@H]3NC(C)=O)[C@H]2O)O[C@H](CO)[C@H](O)[C@@H]1O [SARASINOSIDE A3]	17.1 (≈ 13.3 µM)	–	–	–	–
